These results are taken from US9096500B2, “Acyl sulfonamide compounds” (Pfizer Limited, priority 2010, dated 2015).

In this experiment the target is T1, Nav1.7 (or SCN9A) channel (Homo sapiens, UniProt Q15858).
T1 construct: expressed in transfected cells
T1 sequence (Q15858 whole entry): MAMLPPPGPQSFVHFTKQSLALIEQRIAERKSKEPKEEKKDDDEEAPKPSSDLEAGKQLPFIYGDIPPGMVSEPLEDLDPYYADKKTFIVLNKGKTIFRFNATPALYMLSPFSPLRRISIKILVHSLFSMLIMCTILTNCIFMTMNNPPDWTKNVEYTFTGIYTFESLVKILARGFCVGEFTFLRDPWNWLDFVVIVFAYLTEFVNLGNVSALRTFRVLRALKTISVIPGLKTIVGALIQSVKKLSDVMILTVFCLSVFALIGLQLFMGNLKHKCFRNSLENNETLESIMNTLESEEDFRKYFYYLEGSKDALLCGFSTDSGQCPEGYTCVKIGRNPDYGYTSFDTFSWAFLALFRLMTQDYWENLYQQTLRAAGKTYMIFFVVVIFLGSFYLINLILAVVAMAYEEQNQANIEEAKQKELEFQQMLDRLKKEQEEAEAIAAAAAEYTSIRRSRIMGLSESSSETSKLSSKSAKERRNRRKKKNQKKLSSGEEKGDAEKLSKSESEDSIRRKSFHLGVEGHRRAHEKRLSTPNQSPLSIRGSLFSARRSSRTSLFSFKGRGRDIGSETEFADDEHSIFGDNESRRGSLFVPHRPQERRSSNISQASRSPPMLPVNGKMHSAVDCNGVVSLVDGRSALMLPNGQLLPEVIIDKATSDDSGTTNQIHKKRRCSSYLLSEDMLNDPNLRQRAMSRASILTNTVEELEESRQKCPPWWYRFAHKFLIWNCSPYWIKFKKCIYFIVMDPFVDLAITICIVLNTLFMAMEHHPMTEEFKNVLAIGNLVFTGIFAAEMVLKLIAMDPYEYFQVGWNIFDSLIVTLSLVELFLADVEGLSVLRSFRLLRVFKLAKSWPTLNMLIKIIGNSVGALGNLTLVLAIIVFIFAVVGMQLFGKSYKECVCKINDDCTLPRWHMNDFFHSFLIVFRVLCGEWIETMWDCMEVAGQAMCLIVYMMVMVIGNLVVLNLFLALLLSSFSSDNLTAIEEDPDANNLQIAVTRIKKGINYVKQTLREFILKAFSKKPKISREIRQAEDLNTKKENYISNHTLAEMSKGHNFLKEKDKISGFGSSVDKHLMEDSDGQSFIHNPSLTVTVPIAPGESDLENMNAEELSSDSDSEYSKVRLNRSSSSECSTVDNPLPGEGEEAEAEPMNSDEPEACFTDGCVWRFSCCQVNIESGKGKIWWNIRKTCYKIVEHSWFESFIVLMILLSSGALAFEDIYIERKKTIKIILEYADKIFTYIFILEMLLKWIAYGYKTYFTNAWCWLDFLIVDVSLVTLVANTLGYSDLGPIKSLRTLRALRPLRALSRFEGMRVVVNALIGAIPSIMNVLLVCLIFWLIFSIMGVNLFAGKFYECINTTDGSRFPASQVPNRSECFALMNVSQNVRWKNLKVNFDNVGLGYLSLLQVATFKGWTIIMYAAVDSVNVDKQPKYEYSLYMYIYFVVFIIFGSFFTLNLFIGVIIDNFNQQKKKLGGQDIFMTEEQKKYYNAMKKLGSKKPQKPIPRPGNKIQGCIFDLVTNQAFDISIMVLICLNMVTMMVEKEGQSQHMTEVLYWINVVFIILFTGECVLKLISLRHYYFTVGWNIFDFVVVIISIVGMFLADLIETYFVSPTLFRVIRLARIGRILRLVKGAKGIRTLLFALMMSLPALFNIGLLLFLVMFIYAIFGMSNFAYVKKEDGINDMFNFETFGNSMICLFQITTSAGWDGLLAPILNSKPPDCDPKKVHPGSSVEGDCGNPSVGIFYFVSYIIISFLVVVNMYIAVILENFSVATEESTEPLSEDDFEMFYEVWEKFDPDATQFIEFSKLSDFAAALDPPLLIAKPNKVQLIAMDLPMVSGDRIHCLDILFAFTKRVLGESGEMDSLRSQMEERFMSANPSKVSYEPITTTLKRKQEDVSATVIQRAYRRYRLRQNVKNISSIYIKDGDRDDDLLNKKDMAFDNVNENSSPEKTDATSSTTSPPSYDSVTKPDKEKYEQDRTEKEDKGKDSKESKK
Nature of the experiment: Nav1.7 (hSCN9A) electrophysiology assay, PatchXpress platform. Type of experiment: cell-based. Particulars: estimated IC50 from single point electrophysiology data, HEK cells stably expressing hSCN9A, held at V1/2 of inactivation, read-out: Nav1.7 EIC50. The essentials:
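HEK cells stably expressing hSCN9A were recorded by whole-cell voltage clamp, including on PatchXpress, at 22–24°C with extracellular solution at pH 7.4. A 20 msec step to 0 mV followed an 8 s conditioning prepulse to the empirically determined inactivation V1/2. Inhibition was taken from current amplitude before vs after compound.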
Regarding `CS(=O)(=O)NC(=O)c1cc(F)c(COc2cccc(C(F)(F)F)c2)cc1F` [Example 109, 2,5-difluoro-N-(methylsulfonyl)-4-{[3-(trifluoromethyl)phenoxy]methyl}benzamide], the IC50 is 140 nM.
As for `CS(=O)(=O)NC(=O)c1cc(F)c(COc2ccccc2F)cc1F` [Example 110, 2,5-difluoro-4-[(2-fluorophenoxy)methyl]-N-(methylsulfonyl)benzamide], the IC50 is 2200 nM.
Turning to `CS(=O)(=O)NC(=O)c1cc(F)c(COc2cccc(F)c2F)cc1F` [Example 111, 4-[(2,3-difluorophenoxy)methyl]-2,5-difluoro-N-(methylsulfonyl)benzamide], the IC50 is more than 1000 nM.
`CCc1ccccc1OCc1cc(F)c(C(=O)NS(C)(=O)=O)cc1F` [Example 112, 4-[(2-ethylphenoxy)methyl]-2,5-difluoro-N-(methylsulfonyl)benzamide]: the IC50 was 1400 nM.
In the case of `CN1CCN(c2cccc(OCc3cc(F)c(C(=O)NS(C)(=O)=O)cc3F)c2)CC1` [Example 113, 2,5-difluoro-4-{[3-(4-methylpiperazin-1-yl)phenoxy]methyl}-N-(methylsulfonyl)benzamide], the IC50 is 11000 nM.
Take `Cc1ccc(OCc2cc(F)c(C(=O)NS(C)(=O)=O)cc2F)cc1` [Example 115, 2,5-difluoro-4-[(4-methylphenoxy)methyl]-N-(methylsulfonyl)benzamide]: the IC50 is 620 nM.
In the case of `CS(=O)(=O)NC(=O)c1cc(F)c(COc2cccc(F)c2)cc1F` [Example 116, 2,5-difluoro-4-[(3-fluorophenoxy)methyl]-N-(methylsulfonyl)benzamide], the IC50 was 570 nM.
Next, `CS(=O)(=O)NC(=O)c1cc(F)c(COc2ccccc2OC(F)(F)F)cc1F` [Example 117, 2,5-difluoro-N-(methylsulfonyl)-4-{[2-(trifluoromethoxy)phenoxy]methyl}benzamide]: 2200 nM; `CS(=O)(=O)NC(=O)c1cc(F)c(COc2cc(F)cc(F)c2)cc1F` [Example 118, 4-[(3,5-difluorophenoxy)methyl]-2,5-difluoro-N-(methylsulfonyl)benzamide]: more than 1000 nM.
Next, `Cc1cc(C)cc(OCc2cc(F)c(C(=O)NS(C)(=O)=O)cc2F)c1` [Example 119, 4-[(3,5-dimethylphenoxy)methyl]-2,5-difluoro-N-(methylsulfonyl)benzamide]: 380 nM; `Cc1ccc(OCc2cc(F)c(C(=O)NS(C)(=O)=O)cc2F)cc1C` [Example 120, 4-[(3,4-dimethylphenoxy)methyl]-2,5-difluoro-N-(methylsulfonyl)benzamide]: 700 nM.
Next, `COc1ccc(Cl)c(OCc2cc(F)c(C(=O)NS(C)(=O)=O)cc2F)c1` [Example 122, 4-[(2-chloro-5-methoxyphenoxy)methyl]-2,5-difluoro-N-(methylsulfonyl)benzamide]: 2200 nM; `CS(=O)(=O)NC(=O)c1cc(F)c(COc2cc(C(F)(F)F)ccc2F)cc1F` [Example 123, 2,5-difluoro-4-{[2-fluoro-5-(trifluoromethyl)phenoxy]methyl}-N-(methylsulfonyl)benzamide]: 850 nM; `CS(=O)(=O)NC(=O)c1cc(F)c(COc2cc(F)cc(Cl)c2)cc1F` [Example 124, 4-[(3-chloro-5-fluorophenoxy)methyl]-2,5-difluoro-N-(methylsulfonyl)benzamide]: 180 nM.
Regarding `CS(=O)(=O)NC(=O)c1cc(F)c(COc2ccc(F)c(C#N)c2)cc1F` [Example 125, 4-[(3-cyano-4-fluorophenoxy)methyl]-2,5-difluoro-N-(methylsulfonyl)benzamide], the IC50 was 1400 nM.
`CS(=O)(=O)NC(=O)c1cc(F)c(COc2c(F)cccc2F)cc1F` [Example 126, 4-[(2,6-difluorophenoxy)methyl]-2,5-difluoro-N-(methylsulfonyl)benzamide]: the IC50 was more than 3000 nM.
Under `CS(=O)(=O)NC(=O)c1cc(F)c(COc2ccc(C#N)c(F)c2)cc1F` [Example 127, 4-[(4-cyano-3-fluorophenoxy)methyl]-2,5-difluoro-N-(methylsulfonyl)benzamide] stands 2600 nM.
Next, `COc1cc(F)cc(OCc2cc(F)c(C(=O)NS(C)(=O)=O)cc2F)c1` [Example 128, 2,5-difluoro-4-[(3-fluoro-5-methoxyphenoxy)methyl]-N-(methylsulfonyl)benzamide]: 2900 nM.
On to `CS(=O)(=O)NC(=O)c1cc(F)c(COc2ccc(F)c(F)c2Cl)cc1F` [Example 129, 4-[(2-chloro-3,4-difluorophenoxy)methyl]-2,5-difluoro-N-(methylsulfonyl)benzamide], for which the IC50 was 1900 nM.
For `CS(=O)(=O)NC(=O)c1cc(F)c(COc2ccc3ccccc3c2)cc1F` [Example 130, 2,5-difluoro-N-(methylsulfonyl)-4-[(2-naphthyloxy)methyl]benzamide], the IC50 was 240 nM.
Next, `Cc1cc(Cl)c(OCc2cc(F)c(C(=O)NS(C)(=O)=O)cc2F)cc1C#N` [Example 131, 4-[(2-chloro-5-cyano-4-methylphenoxy)methyl]-2,5-difluoro-N-(methylsulfonyl)benzamide]: more than 1000 nM.
Regarding `COc1cc(C#N)ccc1OCc1cc(F)c(C(=O)NS(C)(=O)=O)cc1F` [Example 132, 4-[(4-cyano-2-methoxyphenoxy)methyl]-2,5-difluoro-N-(methylsulfonyl)benzamide], the IC50 is more than 3000 nM.
For the molecule `CS(=O)(=O)NC(=O)c1cc(F)c(COc2ccc(Cl)cc2F)cc1F` [Example 133, 4-[(4-chloro-2-fluorophenoxy)methyl]-2,5-difluoro-N-(methylsulfonyl)benzamide], the IC50 is more than 1000 nM.
Next, `CS(=O)(=O)NC(=O)c1cc(F)c(COc2cc(Cl)ccc2Cl)cc1F` [Example 134, 4-[(2,5-dichlorophenoxy)methyl]-2,5-difluoro-N-(methylsulfonyl)benzamide]: 470 nM; `CS(=O)(=O)NC(=O)c1cc(F)c(COc2ccc(Cl)cc2C#N)cc1F` [Example 135, 4-[(4-chloro-2-cyanophenoxy)methyl]-2,5-difluoro-N-(methylsulfonyl)benzamide]: more than 3000 nM.
Turning to `CS(=O)(=O)NC(=O)c1cc(F)c(COc2cccc(N3CCOCC3)c2)cc1F` [Example 136, 2,5-difluoro-N-(methylsulfonyl)-4-[(3-morpholin-4-ylphenoxy)methyl]benzamide], the IC50 is more than 3000 nM.
With `CS(=O)(=O)NC(=O)c1cc(F)c(COc2ccccc2C#N)cc1F` [Example 137, 4-[(2-cyanophenoxy)methyl]-2,5-difluoro-N-(methylsulfonyl)benzamide], the IC50 was more than 3000 nM.
Under `CS(=O)(=O)NC(=O)c1cc(F)c(COc2ccc(-c3cocn3)cc2)cc1F` [Example 138, 2,5-difluoro-N-(methylsulfonyl)-4-{[4-(1,3-oxazol-4-yl)phenoxy]methyl}benzamide] stands 4200 nM.
As for `COc1cc(OCc2cc(F)c(C(=O)NS(C)(=O)=O)cc2F)ccc1-n1cccn1` [Example 139, 2,5-difluoro-4-{[3-methoxy-4-(1H-pyrazol-1-yl)phenoxy]methyl}-N-(methylsulfonyl)benzamide], the IC50 was more than 3000 nM.
In the case of `CS(=O)(=O)NC(=O)c1cc(F)c(COc2c(F)ccc(F)c2F)cc1F` [Example 140, 2,5-difluoro-N-(methylsulfonyl)-4-[(2,3,6-trifluorophenoxy)methyl]benzamide], the IC50 was 2200 nM.
Regarding `CS(=O)(=O)NC(=O)c1cc(F)c(COc2ccc(C(F)(F)F)cc2)cc1F` [Example 141, 2,5-difluoro-N-(methylsulfonyl)-4-{[4-(trifluoromethyl)phenoxy]methyl}benzamide], the IC50 was 330 nM.
Next, `CS(=O)(=O)NC(=O)c1cc(F)c(COc2ccc(F)c(C(F)(F)F)c2)cc1F` [Example 142, 2,5-difluoro-4-{[4-fluoro-3-(trifluoromethyl)phenoxy]methyl}-N-(methylsulfonyl)benzamide]: 600 nM; `CC(C)Oc1ccc(F)cc1OCc1cc(F)c(C(=O)NS(C)(=O)=O)cc1F` [Example 143, 2,5-difluoro-4-[(5-fluoro-2-isopropoxyphenoxy)methyl]-N-(methylsulfonyl)benzamide]: 9700 nM.
Turning to `CS(=O)(=O)NC(=O)c1cc(F)c(COc2ccc(OC(F)(F)F)cc2)cc1F` [Example 144, 2,5-difluoro-N-(methylsulfonyl)-4-{[4-(trifluoromethoxy)phenoxy]methyl}benzamide], the IC50 was 150 nM.
On to `CS(=O)(=O)NC(=O)c1cc(F)c(COc2ccc(F)cc2C2CC2)cc1F` [Example 145, 4-[(2-cyclopropyl-4-fluorophenoxy)methyl]-2,5-difluoro-N-(methylsulfonyl)benzamide], for which the IC50 was 2300 nM.
Turning to `COc1ccc(OCc2cc(F)c(C(=O)NS(C)(=O)=O)cc2F)c(C#N)c1` [Example 146, 4-[(2-cyano-4-methoxyphenoxy)methyl]-2,5-difluoro-N-(methylsulfonyl)benzamide], the IC50 is more than 1000 nM.
As to `CC(C)c1ccc(OCc2cc(F)c(C(=O)NS(C)(=O)=O)cc2F)cc1` [Example 147, 2,5-difluoro-4-[(4-isopropylphenoxy)methyl]-N-(methylsulfonyl)benzamide], the IC50 is 170 nM.
Next, `CS(=O)(=O)NC(=O)c1cc(F)c(COc2ccc(Cl)cc2-c2ccno2)cc1F` [Example 148, 4-[(4-chloro-2-isoxazol-5-ylphenoxy)methyl]-2,5-difluoro-N-(methylsulfonyl)benzamide]: more than 1000 nM; `CS(=O)(=O)NC(=O)c1cc(F)c(COc2c(F)cccc2Cl)cc1F` [Example 149, 4-[(2-chloro-6-fluorophenoxy)methyl]-2,5-difluoro-N-(methylsulfonyl)benzamide]: 4000 nM; `COc1cc(C)cc(OCc2cc(F)c(C(=O)NS(C)(=O)=O)cc2F)c1` [Example 150, 2,5-difluoro-4-[(3-methoxy-5-methylphenoxy)methyl]-N-(methylsulfonyl)benzamide]: 500 nM.
